Patent publication US20230072683A1, “PYRIDO-PYRIMIDIN DERIVATIVES AND PHARMACEUTICAL COMPOSITION, FOR USE IN PREVENTING OR TREATING PI3 KINASE RELATED DISEASES, COMPRISING SAME AS ACTIVE INGREDIENT” (BORYUNG PHARMACEUTICAL CO., LTD, priority 2019, published 2023)

Columns and labels:
[1] = molecular target: PI3K-δ (PI3K(p1108/p857) (h)) (Homo sapiens, UniProt O00329); assay: Evaluation of inhibitory activity against PI3K-δ (HTRF kinase assay); assay type: biochemical; conditions: compound at 0.1 μM; read-out: EXP_VALUE(% Inhibition) PI3K-δ 0.1 μM
Summary of the method: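 HTRF read-out (665/620 nm ratio ×10000) used Eu-labelled anti-GST, GST-tagged GRP1 PH domain and streptavidin-allophycocyanin after EDTA/PIP3 stop.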

[2] = molecular target: DNA-PK(h) (Homo sapiens, UniProt P78527); assay: Evaluation of inhibitory activity against DNA-PK (HTRF kinase assay, GST-cMyc-p53 substrate); assay type: biochemical; conditions: compound at 0.1 μM; read-out: EXP_VALUE(% Inhibition) DNA-PK(h) 0.1 μM
Summary of the method: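 Human DNA-PK with 50 μM GST-cMyc-p53 substrate; reaction started with Mg/ATP, run 30 min at room temperature, stopped with EDTA. Phospho-Ser15 p53 detected by HTRF (Eu anti-phospho-Ser15, d2 anti-GST), signal = 10000×(Em 665/Em 620).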

Chain of PI3K-δ (PI3K(p1108/p857) (h)) (O00329 whole entry, the tested form may be a part): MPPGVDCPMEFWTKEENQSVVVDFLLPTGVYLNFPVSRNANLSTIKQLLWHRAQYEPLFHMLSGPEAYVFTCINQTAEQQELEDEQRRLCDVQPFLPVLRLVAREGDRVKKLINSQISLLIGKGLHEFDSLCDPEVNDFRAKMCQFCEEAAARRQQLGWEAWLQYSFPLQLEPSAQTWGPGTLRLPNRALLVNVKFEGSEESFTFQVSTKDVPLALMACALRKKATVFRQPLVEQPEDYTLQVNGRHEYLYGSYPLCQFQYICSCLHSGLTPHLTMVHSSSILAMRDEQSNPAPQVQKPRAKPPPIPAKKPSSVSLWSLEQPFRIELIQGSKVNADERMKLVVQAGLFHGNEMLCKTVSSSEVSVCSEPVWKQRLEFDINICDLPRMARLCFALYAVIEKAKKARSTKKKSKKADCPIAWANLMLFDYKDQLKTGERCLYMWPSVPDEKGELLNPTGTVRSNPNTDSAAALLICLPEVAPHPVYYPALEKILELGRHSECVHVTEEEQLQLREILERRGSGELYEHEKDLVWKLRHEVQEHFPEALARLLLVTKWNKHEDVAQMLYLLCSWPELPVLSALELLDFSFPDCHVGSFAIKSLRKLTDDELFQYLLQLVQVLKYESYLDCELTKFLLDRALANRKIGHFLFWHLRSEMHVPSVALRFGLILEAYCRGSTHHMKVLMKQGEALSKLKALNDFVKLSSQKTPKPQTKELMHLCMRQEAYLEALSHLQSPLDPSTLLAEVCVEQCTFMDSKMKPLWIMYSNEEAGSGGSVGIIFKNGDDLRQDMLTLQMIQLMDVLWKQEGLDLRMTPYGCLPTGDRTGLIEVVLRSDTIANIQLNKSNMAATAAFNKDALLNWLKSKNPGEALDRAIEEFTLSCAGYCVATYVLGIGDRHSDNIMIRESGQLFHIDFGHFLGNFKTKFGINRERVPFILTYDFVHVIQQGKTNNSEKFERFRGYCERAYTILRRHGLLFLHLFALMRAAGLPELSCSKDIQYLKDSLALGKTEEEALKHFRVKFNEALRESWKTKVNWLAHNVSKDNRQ
Chain of PI3K-δ (PI3K(p1108/p857) (h)) (P27986 whole entry partner, the tested form may be a part): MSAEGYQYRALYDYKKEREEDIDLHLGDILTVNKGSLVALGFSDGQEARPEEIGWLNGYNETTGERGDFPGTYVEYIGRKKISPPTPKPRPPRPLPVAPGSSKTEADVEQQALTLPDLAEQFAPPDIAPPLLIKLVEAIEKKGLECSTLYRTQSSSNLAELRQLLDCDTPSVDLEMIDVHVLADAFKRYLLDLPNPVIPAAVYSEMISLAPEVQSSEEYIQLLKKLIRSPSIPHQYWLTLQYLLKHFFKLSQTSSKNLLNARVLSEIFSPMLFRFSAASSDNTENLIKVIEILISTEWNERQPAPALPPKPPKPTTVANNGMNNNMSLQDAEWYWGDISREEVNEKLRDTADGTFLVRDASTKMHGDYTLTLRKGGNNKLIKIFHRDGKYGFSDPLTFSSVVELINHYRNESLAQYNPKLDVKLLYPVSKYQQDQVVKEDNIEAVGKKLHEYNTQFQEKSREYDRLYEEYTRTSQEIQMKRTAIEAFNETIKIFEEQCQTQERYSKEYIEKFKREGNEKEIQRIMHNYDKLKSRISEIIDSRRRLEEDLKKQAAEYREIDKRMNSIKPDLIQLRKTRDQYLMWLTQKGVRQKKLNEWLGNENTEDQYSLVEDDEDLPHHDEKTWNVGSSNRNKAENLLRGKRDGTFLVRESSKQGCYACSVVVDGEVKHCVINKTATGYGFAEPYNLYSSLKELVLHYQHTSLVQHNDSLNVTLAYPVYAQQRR

| Structure (SMILES) | inhibition at 0.1 µM [1] | inhibition at 0.1 µM [2] |
| --- | --- | --- |
| C[C@H](Nc1ncnc2[nH]ccc(=O)c12)c1c(Cl)c2cccc(S(=O)(=O)c3ccccn3)c2c(=O)n1-c1ccccc1 [Example 414, (S)-4-((1-(4-chloro-1-oxo-2-phenyl-8-(pyridin-2-ylsulfonyl)-1,2-dihydroisoquinolin-3-yl)ethyl)amino)pyrido[2,3-d]pyrimidin-5(8H)-one] | 44% | 32% |
| CC(C)Sc1cccc2c(Cl)c([C@H](C)Nc3ncnc4[nH]ccc(=O)c34)n(-c3ccccc3)c(=O)c12 [Example 415, (S)-4-((1-(4-chloro-8-(isopropylthio)-1-oxo-2-phenyl-1,2-dihydroisoquinolin-3-yl)ethyl)amino)pyrido[2,3-d]pyrimidin-5(8H)-one] | 0% | 23% |
| CC(C)S(=O)(=O)c1cccc2c(Cl)c([C@H](C)Nc3ncnc4[nH]ccc(=O)c34)n(-c3ccccc3)c(=O)c12 [Example 416, (S)-4-((1-(4-chloro-8-(isopropylsulfonyl)-1-oxo-2-phenyl-1,2-dihydroisoquinolin-3-yl)ethyl)amino)pyrido[2,3-d]pyrimidin-5(8H)-one] | 13% | 52% |
| C[C@H](Nc1ncnc2[nH]ccc(=O)c12)c1c(Cl)c2cccc(Sc3nccs3)c2c(=O)n1-c1ccccc1 [Example 417, (S)-4-((1-(4-chloro-1-oxo-2-phenyl-8-(thiazol-2-ylthio)-1,2-dihydroisoquinolin-3-yl)ethyl)amino)pyrido[2,3-d]pyrimidin-5(8H)-one] | 26% | 48% |
| C[C@H](Nc1ncnc2[nH]ccc(=O)c12)c1c(Cl)c2cccc(SC3COC3)c2c(=O)n1-c1ccccc1 [Example 418, (S)-4-((1-(4-chloro-8-(oxetan-3-ylthio)-1-oxo-2-phenyl-1,2-dihydroisoquinolin-3-yl)ethyl)amino)pyrido[2,3-d]pyrimidin-5(8H)-one] | 1% | 29% |
| C[C@H](Nc1ncnc2[nH]ccc(=O)c12)c1c(Cl)c2cccc([S+]([O-])c3ncccn3)c2c(=O)n1-c1ccccc1 (stereo partly drawn) [Example 419, 4-(((1S)-1-(4-chloro-1-oxo-2-phenyl-8-(pyrimidin-2-ylsulfinyl)-1,2-dihydroisoquinolin-3-yl)ethyl)amino)pyrido[2,3-d]pyrimidin-5(8H)-one] | 7% | 47% |
| C[C@H](Nc1ncnc2[nH]ccc(=O)c12)c1c(Cl)c2cccc(S(=O)(=O)c3ncccn3)c2c(=O)n1-c1ccccc1 [Example 420, (S)-4-((1-(4-chloro-1-oxo-2-phenyl-8-(pyrimidin-2-ylsulfonyl)-1,2-dihydroisoquinolin-3-yl)ethyl)amino)pyrido[2,3-d]pyrimidin-5(8H)-one] | 37% | 36% |
| C[C@H](Nc1ncnc2[nH]ccc(=O)c12)c1c(Cl)c2cccc([S@](=N)(=O)c3ncccn3)c2c(=O)n1-c1ccccc1 [Example 421, 4-(((S)-1-(4-chloro-1-oxo-2-phenyl-8-((S)-pyrimidine-2-sulfonimidoyl)-1,2-dihydroisoquinolin-3-yl)ethyl)amino)pyrido[2,3-d]pyrimidin-5(8H)-one] | 9% | 7% |
| C[C@H](Nc1ncnc2[nH]ccc(=O)c12)c1c(Cl)c2cccc([S@@](=N)(=O)c3ncccn3)c2c(=O)n1-c1ccccc1 [Example 422, 4-(((S)-1-(4-chloro-1-oxo-2-phenyl-8-((R)-pyrimidine-2-sulfonimidoyl)-1,2-dihydroisoquinolin-3-yl)ethyl)amino)pyrido[2,3-d]pyrimidin-5(8H)-one] | 9% | 18% |
| C[C@H](Nc1ncnc2[nH]ccc(=O)c12)c1c(Cl)c2cccc(Sc3ncccn3)c2c(=O)n1-c1ccccc1 [Example 423, (S)-4-((1-(4-chloro-1-oxo-2-phenyl-8-(pyrimidin-2-ylthio)-1,2-dihydroisoquinolin-3-yl)ethyl)amino)pyrido[2,3-d]pyrimidin-5(8H)-one] | 20% | 22% |
| C[C@H](Nc1ncnc2[nH]ccc(=O)c12)c1c(Cl)c2cccc(-c3cnc(OC(C)(C)C)nc3)c2c(=O)n1-c1ccccc1 [Example 424, (S)-4-((1-(8-(2-(tert-butoxy)pyrimidin-5-yl)-4-chloro-1-oxo-2-phenyl-1,2-dihydroisoquinolin-3-yl)ethyl)amino)pyrido[2,3-d]pyrimidin-5(8H)-one] | 38% | 56% |
| C[C@H](Nc1ncnc2[nH]ccc(=O)c12)c1c(Cl)c2cccc(S(C)(=N)=O)c2c(=O)n1-c1ccccc1 (stereo partly drawn) [Example 425, 4-(((1S)-1-(4-chloro-8-(S-methylsulfonimidoyl)-1-oxo-2-phenyl-1,2-dihydroisoquinolin-3-yl)ethyl)amino)pyrido[2,3-d]pyrimidin-5(8H)-one] | 86% | 16% |
| C[C@H](Nc1ncnc2[nH]ccc(=O)c12)c1c(Cl)c2cccc(SC(C)(C)C)c2c(=O)n1-c1ccccc1 [Example 426, (S)-4-((1-(8-(tert-butylthio)-4-chloro-1-oxo-2-phenyl-1,2-dihydroisoquinolin-3-yl)ethyl)amino)pyrido[2,3-d]pyrimidin-5(8H)-one] | 12% | 8% |
| C[C@H](Nc1ncnc2[nH]ccc(=O)c12)c1c(Cl)c2cccc(S)c2c(=O)n1-c1ccccc1 [Example 427, (S)-4-((1-(4-chloro-8-mercapto-1-oxo-2-phenyl-1,2-dihydroisoquinolin-3-yl)ethyl)amino)pyrido[2,3-d]pyrimidin-5(8H)-one] | 38% | 7% |
| C[C@H](Nc1ncnc2[nH]ccc(=O)c12)c1c(Cl)c2cccc(Oc3ccncc3)c2c(=O)n1-c1ccccc1 [Example 428, (S)-4-((1-(4-chloro-1-oxo-2-phenyl-8-(pyridin-4-yloxy)-1,2-dihydroisoquinolin-3-yl)ethyl)amino)pyrido[2,3-d]pyrimidin-5(8H)-one] | 86% | 13% |
| C[C@H](Nc1ncnc2[nH]ccc(=O)c12)c1c(Cl)c2cccc(OCc3ccncc3)c2c(=O)n1-c1ccccc1 [Example 429, (S)-4-((1-(4-chloro-1-oxo-2-phenyl-8-(pyridin-4-ylmethoxy)-1,2-dihydroisoquinolin-3-yl)ethyl)amino)pyrido[2,3-d]pyrimidin-5(8H)-one] | 47% | 63% |
| C[C@H](Nc1ncnc2[nH]ccc(=O)c12)c1c(Cl)c2cccc(OCc3ccccn3)c2c(=O)n1-c1ccccc1 [Example 430, (S)-4-((1-(4-chloro-1-oxo-2-phenyl-8-(pyridin-2-ylmethoxy)-1,2-dihydroisoquinolin-3-yl)ethyl)amino)pyrido[2,3-d]pyrimidin-5(8H)-one] | 44% | 68% |
| C[C@H](Nc1ncnc2[nH]ccc(=O)c12)c1c(Cl)c2cccc([S+]([O-])C3COC3)c2c(=O)n1-c1ccccc1 (stereo partly drawn) [Example 431, 4-(((1S)-1-(4-chloro-8-(oxetan-3-ylsulfinyl)-1-oxo-2-phenyl-1,2-dihydroisoquinolin-3-yl)ethyl)amino)pyrido[2,3-d]pyrimidin-5(8H)-one] | 32% | 57% |
| C[C@H](Nc1ncnc2[nH]ccc(=O)c12)c1c(Cl)c2cccc(S(=O)(=O)C3COC3)c2c(=O)n1-c1ccccc1 [Example 432, (S)-4-((1-(4-chloro-8-(oxetan-3-ylsulfonyl)-1-oxo-2-phenyl-1,2-dihydroisoquinolin-3-yl)ethyl)amino)pyrido[2,3-d]pyrimidin-5(8H)-one] | 87% | 47% |
| C[C@H](Nc1ncnc2[nH]ccc(=O)c12)c1c(Cl)c2cccc(S(=O)(=O)C(C)(C)C)c2c(=O)n1-c1ccccc1 [Example 433, (S)-4-((1-(8-(tert-butylsulfonyl)-4-chloro-1-oxo-2-phenyl-1,2-dihydroisoquinolin-3-yl)ethyl)amino)pyrido[2,3-d]pyrimidin-5(8H)-one] | 8% | 24% |
| CCSc1cccc2c(Cl)c([C@H](C)Nc3ncnc4[nH]ccc(=O)c34)n(-c3ccccc3)c(=O)c12 [Example 434, (S)-4-((1-(4-chloro-8-(ethylthio)-1-oxo-2-phenyl-1,2-dihydroisoquinolin-3-yl)ethyl)amino)pyrido[2,3-d]pyrimidin-5(8H)-one] | 8% | 32% |
| CC[S@@](=N)(=O)c1cccc2c(Cl)c([C@H](C)Nc3ncnc4[nH]ccc(=O)c34)n(-c3ccccc3)c(=O)c12 [Example 435, 4-(((S)-1-(4-chloro-8-((R)-ethylsulfonimidoyl)-1-oxo-2-phenyl-1,2-dihydroisoquinolin-3-yl)ethyl)amino)pyrido[2,3-d]pyrimidin-5(8H)-one] | 24% | 18% |
| CC[S@](=N)(=O)c1cccc2c(Cl)c([C@H](C)Nc3ncnc4[nH]ccc(=O)c34)n(-c3ccccc3)c(=O)c12 [Example 436, 4-(((S)-1-(4-chloro-8-((S)-ethylsulfonimidoyl)-1-oxo-2-phenyl-1,2-dihydroisoquinolin-3-yl)ethyl)amino)pyrido[2,3-d]pyrimidin-5(8H)-one] | 7% | 9% |
| C[C@H](Nc1ncnc2[nH]ccc(=O)c12)c1c(Cl)c2cccc(Oc3cccnc3)c2c(=O)n1-c1ccccc1 [Example 437, (S)-4-((1-(4-chloro-1-oxo-2-phenyl-8-(pyridin-3-yloxy)-1,2-dihydroisoquinolin-3-yl)ethyl)amino)pyrido[2,3-d]pyrimidin-5(8H)-one] | 33% | 53% |
